The subject of assay [1] is Aβ 40 levels in cells stably expressing Amyloid Precursor Protein (APP). As to the kind of experiment: In vitro BACE cell-based assay (HEK cell assay), Aβ40 sandwich ELISA. Conditions: average IC50, inhibition of Aβ40 in conditioned medium after 24 h. The procedure: The cell-based assay measures inhibition or reduction of Aβ40 in conditioned medium of test compound treated cells expressing amyloid precursor protein.
Cells stably expressing Amyloid Precursor Protein (APP) were plated at a density of 40K cells/well in 96 well plates (Costar). The cells were cultivated for 24 hours at 37° C. and 5% CO2 in DMEM supplemented with 10% FBS. The test compounds were then added to cells in 10-point dose response concentrations with the starting concentration being either 100 μM or 10 μM. The compounds were diluted from stock solutions in DMSO and the final DMSO concentration of the test compounds on cells was 0.1%. After 24 h of incubation with the test compounds the supernatant conditioned media was collected and the Aβ 40 levels were determined using a sandwich ELISA. The IC50 of the compound was calculated from the percent of control or percent inhibition of Aβ 40 as a function of the concentration of the test compound.
The sandwich ELISA to detect Aβ 40 was performed in 96 well microtiter plates, which were pre-treated with goat anti-rabbit IgG (Pierce). The capture and detecting antibody pair that were used to detect Aβ 40 from cell supernatants were affinity purified pAb40 (Biosource) and biotinylated 6E10 (Signet Labs Inc.), respectively.
Cellular supernatants were incubated with the capture antibody for 3 h at 4° C., followed by 3 wash steps in TBS-tween (0.05%). The detecting antibody incubation was for 2 h at 4° C., again followed by the wash steps as described previously. The final readout of the ELISA is Time-Resolved Fluorescence (counts per minute) using Delfia reagents Streptavidin-Europium and Enhancement solutions (Perkin Elmer) and the Victor 2 multilabel counter (Perkin Elmer).
(In general: In an ELISA, binding on a coated surface is turned into a signal by an enzyme label.)

The target of the next assay is BACE 1 (Homo sapiens (Human), UniProt P56817). As to the kind of experiment: In vitro enzymatic BACE FRET assay. Type of assay: biochemical. Conditions: average IC50; acetate buffer pH 4.2, enzyme 0.2 nM, FRET substrate 50 nM. As for the experimental part: In Vitro Enzymatic BACE FRET (Fluorescence Resonance Energy Transfer) Assay (Enzyme Assay Data in the Example Table I)
The assay buffer used in this screen is 0.05 M acetate, pH 4.2, 10% DMSO final, 100 uM genapol (which is a nonionic detergent, below its Critical Micelle Concentration). The Beta Secretase enzyme (0.2 nM) is pre-incubated for one hour with inhibitors, typically in about 1 uL of DMSO according to a serial dilution, are added thereto. This assay is effectively started by the addition of FRET substrate (50 nM) and the combination is incubated for one hour. The FRET assay is terminated with by addition of Tris buffer, which raises the pH to neutrality, and the fluorescence is determined. The FRET substrate is a peptide with commercially available fluorophore and quencher, on opposite sides of the BACE cleavage site. Proteolytic cleavage of the FRET substrate releases quenching of fluorescence (excitation 488 nm and […]).

A further assay deals with gamma-secretase. The note with it: cited from earlier work.

Chain of BACE 1 (P56817 46-501): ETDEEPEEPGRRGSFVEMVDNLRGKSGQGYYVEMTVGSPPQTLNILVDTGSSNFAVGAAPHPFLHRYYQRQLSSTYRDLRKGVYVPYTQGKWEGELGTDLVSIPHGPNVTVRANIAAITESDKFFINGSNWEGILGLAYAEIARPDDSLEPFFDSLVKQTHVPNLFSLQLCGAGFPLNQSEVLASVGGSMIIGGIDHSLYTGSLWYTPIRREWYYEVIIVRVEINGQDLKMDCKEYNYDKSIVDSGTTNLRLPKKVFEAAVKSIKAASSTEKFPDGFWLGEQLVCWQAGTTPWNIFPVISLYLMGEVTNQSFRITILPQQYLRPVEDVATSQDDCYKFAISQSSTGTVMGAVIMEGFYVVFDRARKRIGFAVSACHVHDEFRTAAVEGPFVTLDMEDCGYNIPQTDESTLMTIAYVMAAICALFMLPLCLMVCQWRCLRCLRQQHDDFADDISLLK

The IC50 is the concentration that inhibits the measured activity by half. For the compound `COc1cc(F)c2c(c1)[C@@]1(N=C(N)N3CCCN=C31)c1cc(-c3cccnc3F)ccc1O2` [Example 10, (7S)-4′-fluoro-7′-(2-fluoropyridin-3-yl)-2′-methoxy-3,4-dihydro-2H-spiro[imidazo[1,5-a]pyrimidine-8,9′-xanthen]-6-amine (7R)-4′-fluoro-7′-(2-fluoropyridin-3-yl)-2′-methoxy-3,4-dihydro-2H-spiro[imidazo[1,5-a]pyrimidine-8,9′-xanthen]-6-amine], the IC50 in assay [1] (Homo sapiens, HEK293) was 78 nM; at BACE 1, 22 nM.

As for `NC1=N[C@@]2(c3cc(-c4cccnc4F)ccc3Oc3c(F)cc(-c4ccnc(F)c4)cc32)c2nccn21` [Example 8B, (7R)-4′-fluoro-7′-(2-fluoro-3-pyridinyl)-2′-(2-fluoro-4-pyridinyl)spiro[imidazo[1,5-a]imidazole-7,9′-xanthen]-5-amine], the half-maximal inhibitory concentration (IC50) in assay [1] (Homo sapiens, HEK293) amounted to 86 nM; at BACE 1, 0.3 nM. Regarding `NC1=N[C@@]2(c3cc(-c4cccnc4F)ccc3Oc3c(F)cc(N4CCOCC4)cc32)c2nccn21` [Example 9B, (7R)-4′-fluoro-7′-(2-fluoro-3-pyridinyl)-2′-(4-morpholinyl)spiro[imidazo[1,5-a]imidazole-7,9′-xanthen]-5-amine], the 50% inhibitory concentration (IC50) came out at 31 nM in assay [1] (Homo sapiens, HEK293) and 0.7 nM at BACE 1. Regarding `NC1=N[C@]2(c3cc(-c4cccnc4F)ccc3Oc3c(F)cc(-c4ccnc(F)c4)cc32)c2nccn21` [Example 8A, (7S)-4′-fluoro-7′-(2-fluoro-3-pyridinyl)-2′-(2-fluoro-4-pyridinyl)spiro[imidazo[1,5-a]imidazole-7,9′-xanthen]-5-amine], the IC50 came to 138 nM in assay [1] (Homo sapiens, HEK293) and 10 nM on BACE 1. On the same counts, the results for `COc1cc(F)c2c(c1)C1(N=C(N)n3ccnc31)c1cc(-c3cccnc3F)ccc1O2` (stereo not shown) [Example 11, 4′-fluoro-7′-(2-fluoro-3-pyridinyl)-2′-methoxyspiro[imidazo[1,5-a]imidazole-7,9′-xanthen]-5-amine] are 58 nM and 9 nM. Turning to `NC1=N[C@@]2(c3cc(-c4cccnc4F)ccc3Oc3c(F)cc(C4=CCCOC4)cc32)c2nccn21` [Example 12, (7R)-2′-(5,6-dihydro-2H-pyran-3-yl)-4′-fluoro-7′-(2-fluoro-3-pyridinyl)spiro[imidazo[1,5-a]imidazole-7,9′-xanthen]-5-amine], the concentration for half-maximal inhibition (IC50) in assay [1] (Homo sapiens, HEK293) came out at 173 nM; at BACE 1 it was 23 nM.

As to `NC1=N[C@]2(c3cc(-c4cccnc4F)ccc3Oc3c(F)cc(C4=CCCOC4)cc32)c2nccn21` [Example 13, (7S)-2′-(5,6-dihydro-2H-pyran-3-yl)-4′-fluoro-7′-(2-fluoro-3-pyridinyl)spiro[imidazo[1,5-a]imidazole-7,9′-xanthen]-5-amine], the IC50 was 29 nM in assay [1] (Homo sapiens, HEK293) and 0.4 nM at BACE 1.

As for `NC(=O)[C@@H](CCC(F)(F)F)N(Cc1ccc(-c2ncon2)cc1F)S(=O)(=O)c1ccc(Cl)cc1` [BMS-708163], in the assay with gamma-secretase, the “notch selectivity (amyloid-beta precursor protein selective)” value was 193 ×. For the compound `NC1=N[C@]2(c3cc(-c4cccnc4F)ccc3Oc3c(F)cc(N4CCOCC4)cc32)c2nccn21` [Example 9A, (7S)-4′-fluoro-7′-(2-fluoro-3-pyridinyl)-2′-(4-morpholinyl)spiro[imidazo[1,5-a]imidazole-7,9′-xanthen]-5-amine], the IC50 is 3970 nM in assay [1] (Homo sapiens, HEK293) and 189 nM on BACE 1. On the same counts, the results for `Cc1ccc(-c2cc(F)c3c(c2)[C@@]2(N=C(N)n4ccnc42)c2cc(-c4cccnc4F)ccc2O3)cc1` [Example 15, (7S)-4′-fluoro-7′-(2-fluoro-3-pyridinyl)-2′-(4-methylphenyl)spiro[imidazo[1,5-a]imidazole-7,9′-xanthen]-5-amine] are 28 nM and 0.4 nM. For the compound “(7R)-2′-(3,6-dihydro-2H-pyran-4-yl)-4′-fluoro-7′-(2-fluoro-3-pyridinyl)spiro[imidazo[1,5-a]imidazole-7,9′-xanthen]-5-amine, (7S)-2′-(3,6-dihydro-2H-pyran-4-yl)-4′-fluoro-7′-(2-fluoro-3-pyridinyl)spiro[imidazo[1,5-a]imidazole-7,9′-xanthen]-5-amine [Example 16]”, the IC50 in assay [1] was 39 nM; on BACE 1, 0.6 nM. For `Cc1ccc(-c2cc(F)c3c(c2)[C@]2(N=C(N)n4ccnc42)c2cc(-c4cccnc4F)ccc2O3)cc1` [Example 14, (7R)-4′-fluoro-7′-(2-fluoro-3-pyridinyl)-2′-(4-methylphenyl)spiro[imidazo[1,5-a]imidazole-7,9′-xanthen]-5-amine], the IC50 in assay [1] (Homo sapiens, HEK293) was 4160 nM; on BACE 1, 114 nM.

`NC1=N[C@]2(c3cc(-c4cccnc4F)ccc3Oc3c(F)cc(N4CCC(F)(F)CC4)cc32)c2nccn21` [Example 17, (7R)-2′-(4,4-difluoro-1-piperidinyl)-4′-fluoro-7′-(2-fluoro-3-pyridinyl)spiro[imidazo[1,5-a]imidazole-7,9′-xanthen]-5-amine, (7S)-2′-(4,4-difluoro-1-piperidinyl)-4′-fluoro-7′-(2-fluoro-3-pyridinyl)spiro[imidazo[1,5-a]imidazole-7,9′-xanthen]-5-amine]: the figures for the IC50 (in assay [1]; at BACE 1) were 51 nM and 0.7 nM, respectively.

The values are drawn from patent publication US8962859B2, “Spiro-amino-imidazo-fused heterocyclic compounds as beta-secretase modulators and methods of use” (Amgen Inc., priority 2011, dated 2015).
